{
  "source": "patent US12678514B2",
  "about": "“Algae-based microrobot for drug delivery” (priority 2023, dated 2026)",
  "key": {"[1]": {"test_system": "P. aeruginosa", "assay": "In vitro antibacterial activity (MIC, minimal bactericidal concentration)", "type": "cell-based, Pseudomonas aeruginosa", "conditions": "CFU enumeration"}, "[2]": {"assay": "In vivo safety evaluation of algae-NP(DOX)-robot", "design": "species or system C57BL/6 mice", "description": "In vivo toxicity assessment of algae-NP(DOX)-robot. Finally, the toxicity profile of the algae-NP(DOX)-robot was assessed. Healthy mice were subjected to intratracheal administration using one of three different treatments: algae-NP(DOX)-robot, free DOX, and NP(DOX). Each mouse received a total of four 75-μg DOX doses given every other day. A blood count and a comprehensive metabolic panel were performed one day after the final injection to assess the effects of these treatments.\nIn vivo safety evaluation. Healthy female C57BL/6 mice were intratracheally administered with free DOX, NP(DOX) and algae-NP(DOX)-robot every other day for a total of four injections. Mice without treatment were used as controls. At 24 h following the last treatment, blood samples were collected via submandibular puncture into Microvette 100 EDTA K3E tubes (Sarstedt) for blood cell quantification. To collect serum for comprehensive blood chemistry analysis, blood samples were obtained without any anticoagulant, placed at room temperature for 30 min, and centrifuged at 3000 g for 10 min. Both the blood cell quantification and blood chemistry analyses were performed by the Animal Care Program Diagnostic Services Laboratory at UCSD. For histological analysis, the heart, liver, spleen, lungs and kidneys were excised and fixed in phosphate-buffered 10% formalin (Fisher Chemical), followed by sectioning and hematoxylin and eosin staining. These histological procedures were conducted by the Moores Cancer Center Tissue Technology Shared Resource."}, "[3]": {"test_system": "B16-F10-Luc2 melanoma lung metastasis", "assay": "In vivo efficacy in a lung metastasis model", "design": "species or system C57BL/6 mice", "from_the_text": "This model was established by intravenously injecting 1×10^5 B16-F10-Luc2 cells through the tail vein of C57BL/6 mice. The treatment regimen consisted of four 75-μg DOX doses given every other day, with the first dose administered one day after the tumor challenge. […] We also quantified the overall lung metastasis burden based on the bioluminescence intensity in the lungs (FIG. 16d). […] Additionally, we monitored for changes in body weight during the entire treatment period (FIG. 16g).\nIn vivo efficacy in a lung metastasis model. […] The mice received treatment with free DOX, NP(DOX) and algae-NP(DOX)-robot through intratracheal instillation on days 1, 3, 5 and 7 after tumor cell inoculation. Mice without treatment were used as controls. To monitor tumor growth, on days 12, 16, 20, 24 and 28 after tumor cell inoculation, the mice were intraperitoneally administered 200 μl of 5 mg ml^−1 D-luciferin (Syd Labs) in DPBS (Gibco). Bioluminescence signals were detected using a PerkinElmer Xenogen IVIS 200 system. The body weight and survival of each mouse were also monitored throughout the study."}},
  "data": [
    {"smiles": "O=C(O)c1cn(C2CC2)c2cc(N3CCNCC3)c(F)cc2c1=O", "note": "[free Cip, ciprofloxacin]", "values": [
      {"measurement": "minimal bactericidal concentration", "setting": "[1]", "result": 0.125, "unit": "mg/L"}
    ]},
    {"smiles": "COc1cccc2c1C(=O)c1c(O)c3c(c(O)c1C2=O)C[C@@](O)(C(=O)CO)C[C@@H]3O[C@H]1C[C@H](N)[C@H](O)[C@H](C)O1", "note": "[free DOX, doxorubicin]", "values": [
      {"measurement": "liver and kidney biomarkers (ALB, ALP, ALT, BUN, TBIL, CRE)", "setting": "[2]; four 75-μg DOX doses, one day after final dose", "result": "no abnormalities"},
      {"measurement": "histology of heart, liver, spleen, lungs and kidneys", "setting": "[2]; mouse, in vivo", "result": "no observable damage"},
      {"measurement": "other biomarkers (CA, GLU, PHOS, K+, Na+, TP)", "setting": "[2]; mouse, in vivo", "result": "within their normal ranges"},
      {"measurement": "white blood cells, red blood cells and platelets", "setting": "[2]; mouse, in vivo", "result": "elevated platelet levels"},
      {"measurement": "median survival time", "setting": "[3]; four 75-μg DOX doses intratracheal", "result": 27, "unit": "days"},
      {"measurement": "body weight during treatment", "setting": "[3]; mouse, in vivo", "result": "pronounced decline in body weight"}
    ]}
  ]
}
